“Also recorded” adds a separate entry of the source. Where two headings read alike, the source gives them in different places. Ends that are not written are not given here.
What was measured:
intact heart, ex vivo [1] = test: Ex vivo cardiac protection, ischemia and reperfusion in Langendorff-perfused hearts (TTC staining, CPK release); design: species or system Wistar rats
εPKC [2] = test: εPKC translocation from the soluble to the particulate fraction in CHO cells (immunoblot); type: cell-based; details: for εPKC translocation in cells: 500 nM peptide for 15 minutes before sub-maximal 3 nM PMA, relative to control
Method: Upon activation, PKC translocates from the soluble to the particulate cell fraction, which translocation can be monitored by immunoblot analysis (26). It was previously determined that the effect of peptides on PKC translocation is better observed when the cells are treated with a sub-maximal concentration of PMA (22,42). Larger concentrations of PMA, a non-physiological activator, stimulate a greater degree of PKC translocation over translocation stimulated by peptide activators alone (51).
A representative activator (peptide 2) or inhibitor (peptide 7) were preincubated at 500 nM for 15 minutes with cells before sub-optimal stimulation with 3 nM PMA for 7 minutes.
PKC Translocation in Cells—εPKC translocation from the soluble to the particulate fraction in CHO cells was used to assess the relative amount of activated (membrane-bound) εPKC, an assay that has been described previously (42). Evidence of translocation is either by an increase in the amount of PKC in the particulate fraction or by a decrease in the soluble fraction. Briefly, after stimulation, cells were washed with cold PBS, scraped in homogenization buffer, passed through a (25G⅝″) syringe needle, and spun at 100,000 g for 30 min at 4° C. The pellet was then resuspended in homogenization buffer with 1% Triton X-100. Where applicable, the cells were pre-incubated with 500 nM peptide for 15 minutes prior to stimulation. PKC was stimulated with sub-maximal levels of the general PKC activator phorbol 12-myristate 13-acetate (PMA, 3 nM). The samples were then analyzed by Western blot. Antibodies against εPKC were obtained from Santa Cruz Biotechnology (Santa Cruz, Calif.) and used at 1:500 dilution.

PKC [3] = test: MARCKS phosphorylation in primary skeletal muscle cells from εPKC knockout mice (Western blot); details: primary mouse muscle cells from εPKC knock-out mice; 1 μM peptide for 15 minutes
εPKC [4] = target: T1, εPKC (Mus musculus, UniProt P16054); test: In vivo PKC translocation in hearts after intraperitoneal injection (immunoblot); design: species or system mice; details: for translocation of εPKC in hearts in vivo: particulate fraction of mouse hearts, 15 minutes following IP injection of 20 nmol peptide, relative to control TAT peptide
T1 construct: from tissue; host or cells: mouse heart
T1 sequence (P16054 1-737): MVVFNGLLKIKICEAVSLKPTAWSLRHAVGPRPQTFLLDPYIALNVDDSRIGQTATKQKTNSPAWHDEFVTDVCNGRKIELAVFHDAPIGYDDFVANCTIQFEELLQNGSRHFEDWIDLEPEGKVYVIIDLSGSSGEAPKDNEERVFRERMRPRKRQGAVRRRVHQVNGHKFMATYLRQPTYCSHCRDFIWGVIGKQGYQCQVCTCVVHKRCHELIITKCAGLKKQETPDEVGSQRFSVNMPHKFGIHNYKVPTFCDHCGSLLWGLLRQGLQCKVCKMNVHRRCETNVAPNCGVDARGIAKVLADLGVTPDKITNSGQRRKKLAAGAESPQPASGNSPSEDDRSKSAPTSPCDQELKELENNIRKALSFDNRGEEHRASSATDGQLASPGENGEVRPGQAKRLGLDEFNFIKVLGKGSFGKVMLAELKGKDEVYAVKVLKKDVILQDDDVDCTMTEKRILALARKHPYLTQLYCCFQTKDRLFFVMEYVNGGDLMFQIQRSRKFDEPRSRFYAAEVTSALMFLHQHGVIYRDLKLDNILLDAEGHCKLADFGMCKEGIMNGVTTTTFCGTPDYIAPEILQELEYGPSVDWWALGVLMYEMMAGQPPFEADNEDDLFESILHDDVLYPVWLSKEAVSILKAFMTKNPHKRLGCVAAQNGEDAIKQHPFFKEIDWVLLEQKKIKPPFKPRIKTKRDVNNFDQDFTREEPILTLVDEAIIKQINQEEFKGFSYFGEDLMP
Method: (§1) In a further in vivo study, peptide activity and selectivity were examined using representative peptides injected into mice via intraperitoneal (IP) injection, and the amount of εPKC, δPKC, αPKC, and ζPKC translocation in hearts was determined. These four PKC isozymes represent each of the three major sub-families of PKC. In particular, εPKC and δPKC are members of the novel PKC family (calcium insensitive, diacylglycerol sensitive), αPKC is a classical PKC (calcium and diacylglycerol sensitive), and ζPKC is an atypical PKC (calcium and diacylglycerol insensitive).
(§2) Levels of εPKC, δPKC, αPKC, and ζPKC in the particulate fraction of mouse hearts were assayed by immunoblot 15 minutes following IP injection of 20 nmol each peptides (FIGS. 5A-5D). The accompanying graphs show quantitation based on two experiments, calculated as fold increase (+/−standard error) in the particulate fraction/total fraction, normalized to the actin loading control, and relative to the control TAT peptide. […] Since peptides 11 and 13 caused MARCKS phosphorylation in myocytes from the εPKC knockout mice (FIG. 3), it is concluded that they activated several PKC isozymes.
(§3) Isozyme Selectivity In Vivo—To determine that activator peptides causing MARCKS phosphorylation and decreasing ischemia-reperfusion damage in heart also induce εPKC translocation in vivo, we injected the respective peptides at 20 nmol in 200 μl saline into the peritoneum of 15-20 g mice, as previously reported (48). Fifteen minutes later, the mice were sacrificed and heart and brain were collected. Soluble and particulate fractions from mouse tissue were prepared as previously described (48). ε, ζ and δPKC translocation were determined by Western blot analysis using selective anti-PKC antibodies from Santa Cruz Biotechnology, Santa Cruz, Calif. and used at 1:500 dilution. Sarcomeric actin (1:1000, Sigma) was used as a loading control for all fractions.

intact heart, ex vivo [5] = details: pre-treatment, Langendorff apparatus; refs (4,43); cited from earlier work
αPKC = target: T2, αPKC (Mus musculus, UniProt P20444); test: In vivo PKC translocation in hearts after intraperitoneal injection (immunoblot); design: species or system mice; details: particulate fraction of mouse hearts, 15 minutes following IP injection of 20 nmol peptide; relative to control TAT peptide
T2 construct: from tissue; host or cells: mouse heart
Method: as §1, §2, §3

δPKC = target: T3, δPKC (Mus musculus, UniProt P28867); test: as above; design: species or system mice; details: particulate fraction of mouse hearts, 15 minutes following IP injection of 20 nmol peptide; relative to control TAT peptide
T3 construct: from tissue; host or cells: mouse heart
Method: as §1, §2, §3

PKC [6] = details: primary mouse muscle cells, wild-type; 1 μM peptide for 15 or 30 minutes prior to cell lysis
ηPKC = details: ηPKC-derived peptides; Ref. (1, 63); cited from earlier work
[7] = 1 μM TAT-conjugated peptide 10 minutes prior to 40 minutes global ischemia, 60 minutes reperfusion (peptide 9: 30 minutes ischemia), † and ‡ = trend towards cardioprotective (n = 5, n = 3)

T3 sequence (P28867 whole entry): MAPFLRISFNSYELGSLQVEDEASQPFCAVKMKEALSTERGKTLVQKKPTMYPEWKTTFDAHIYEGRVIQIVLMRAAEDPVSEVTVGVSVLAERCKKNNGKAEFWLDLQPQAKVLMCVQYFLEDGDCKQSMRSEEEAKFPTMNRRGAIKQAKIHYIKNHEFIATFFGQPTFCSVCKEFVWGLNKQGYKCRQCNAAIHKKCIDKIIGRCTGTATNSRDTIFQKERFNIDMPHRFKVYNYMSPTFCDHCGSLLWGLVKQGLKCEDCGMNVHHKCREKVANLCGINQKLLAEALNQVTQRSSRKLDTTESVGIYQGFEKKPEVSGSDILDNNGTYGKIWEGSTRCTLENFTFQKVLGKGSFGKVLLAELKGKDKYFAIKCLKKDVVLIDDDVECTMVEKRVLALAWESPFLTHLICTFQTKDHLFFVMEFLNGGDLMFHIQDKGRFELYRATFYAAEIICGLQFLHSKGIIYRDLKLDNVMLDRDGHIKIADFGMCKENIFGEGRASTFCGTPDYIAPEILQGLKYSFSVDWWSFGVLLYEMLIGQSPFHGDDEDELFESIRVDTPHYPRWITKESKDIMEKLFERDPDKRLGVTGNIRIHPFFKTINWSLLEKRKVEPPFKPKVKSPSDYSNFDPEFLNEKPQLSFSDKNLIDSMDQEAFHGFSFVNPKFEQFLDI
Chain of ηPKC (P24723 whole entry, the tested form may be a part): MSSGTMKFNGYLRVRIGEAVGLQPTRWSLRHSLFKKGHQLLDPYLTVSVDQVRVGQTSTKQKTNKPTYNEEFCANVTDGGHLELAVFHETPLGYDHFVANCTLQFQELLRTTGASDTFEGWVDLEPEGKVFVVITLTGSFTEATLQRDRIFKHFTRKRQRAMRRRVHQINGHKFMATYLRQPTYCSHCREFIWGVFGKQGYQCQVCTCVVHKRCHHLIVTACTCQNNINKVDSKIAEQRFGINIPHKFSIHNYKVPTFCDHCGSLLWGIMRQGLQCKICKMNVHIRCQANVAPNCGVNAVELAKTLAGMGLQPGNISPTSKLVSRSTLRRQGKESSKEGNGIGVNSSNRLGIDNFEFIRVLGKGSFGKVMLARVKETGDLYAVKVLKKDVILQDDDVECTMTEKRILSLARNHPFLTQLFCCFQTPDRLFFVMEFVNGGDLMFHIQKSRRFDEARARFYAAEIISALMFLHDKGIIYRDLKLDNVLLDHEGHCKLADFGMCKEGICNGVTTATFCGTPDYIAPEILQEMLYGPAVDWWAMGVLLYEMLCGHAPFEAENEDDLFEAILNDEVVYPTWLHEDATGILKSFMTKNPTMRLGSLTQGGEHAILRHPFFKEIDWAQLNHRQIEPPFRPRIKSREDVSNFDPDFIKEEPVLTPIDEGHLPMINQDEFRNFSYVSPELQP

| Substance | εPKC translocation in cells (εPKC [2]) | MARCKS phosphorylation in εKO Cells (PKC [3]) | Cardioprotective ex vivo (intact heart, ex vivo [1]) | other results |
| --- | --- | --- | --- | --- |
| CAVGPRPQT (not fully specified (residue 1)) [Peptide 2] | activator | not in KO; also recorded: no effect |  | Cardioprotective ex vivo (intact heart, ex vivo [1]; [7]): cardioprotective and yes; increase in the amount of εPKC translocation compared to pre-treatment with the TAT control peptide (εPKC [2]; 500 nM peptide 15 minutes, then 3 nM PMA 7 minutes, n=5, p<0.05): approximately 30% |
| CEAVSLKPT [εV1-2, reference compound] | decrease in the amount of εPKC in the pellet fraction; also recorded: inhibitor | no effect |  | Cardioprotective ex vivo (intact heart, ex vivo [1]; [7]): no |
| CEFVTDV [Peptide 8] | activator | not conclusive | not cardioprotective and no |  |
| CFLLDPY [Peptide 3] | activator | not in KO; also recorded: no effect | trend towards cardioprotection and yes‡ |  |
| CFNGLLKIKI (not fully specified (residue 1)) [Peptide 1] | activator | not in KO; also recorded: no effect |  | Cardioprotective ex vivo (intact heart, ex vivo [1]; [7]): trend towards cardioprotection and yes†; translocation of εPKC in hearts in vivo (εPKC [4]): caused translocation of εPKC |
| CHDAPIGYD [ψεRACK, reference compound] | activator | not in KO; also recorded: no effect |  | Cardioprotective ex vivo (intact heart, ex vivo [1]; [7]): cardioprotective and yes; damage (infarction) of hearts subjected to ischemia and reperfusion ex vivo (intact heart, ex vivo [5]): reduced damage; translocation of εPKC in hearts in vivo (εPKC [4]): caused translocation of εPKC |
| CHFEDWID (not fully specified; also: TAT47-57 carrier linked via Cys disulfide) [Peptide 11] |  | increased MARCKS phosphorylation; also recorded: activator | not cardioprotective and no | translocation of αPKC in hearts in vivo (αPKC): substantial translocation; translocation of δPKC in hearts in vivo (δPKC): substantial translocation; translocation of εPKC in hearts in vivo (εPKC [4]): substantial translocation |
| CIELAVF [Peptide 10] | activator | not conclusive | no | MARCKS phosphorylation in WT Cells (PKC [6]): activator |
| CLEPEGK [Peptide 12] | decrease in the amount of εPKC in the pellet fraction; also recorded: inhibitor |  |  |  |
| CLSETKPAV (not fully specified; also: TAT47-57 conjugated) [scrambled εV1-2, reference compound] | stimulated εPKC translocation; also recorded: activator | no effect | not cardioprotective and no | translocation of δPKC in hearts in vivo (δPKC): did not cause an increase; PKC translocation, in vivo (εPKC [4]; mouse hearts, 15 minutes after IP injection of 20 nmol peptide, the cell words say which of ε, δ, α, ζPKC translocate): no; translocation of εPKC in hearts in vivo (εPKC [4]): did not cause an increase |
| CNGRKI (not fully specified; also: TAT47-57 carrier linked via Cys disulfide) [Peptide 9] | activator | not in KO; also recorded: no effect | cardioprotective and yes |  |
| CPAWHD [Peptide 7] | decrease in the amount of εPKC in the pellet fraction; also recorded: inhibitor |  | no | decrease in the amount of translocated εPKC compared to pre-treatment with the TAT control peptide (εPKC [2]; 500 nM peptide 15 minutes, then 3 nM PMA 7 minutes, n=3, p<0.01): approximately 50% |
| CPDYHDAGI (not fully specified; also: TAT47-57 conjugated) [scrambled ψεRACK, reference compound] |  |  | not cardioprotective and no | MARCKS phosphorylation in WT Cells (PKC [6]): No change |
| CPYIALNVD (not fully specified (residue 1)) [Peptide 4] | decrease in the amount of εPKC in the pellet fraction; also recorded: inhibitor |  |  |  |
| CSRIGQ [Peptide 5] | activator | not in KO; also recorded: no effect | cardioprotective and yes | translocation of εPKC in hearts in vivo (εPKC [4]): caused translocation of εPKC |
| CTATKQKT (not fully specified; also: TAT47-57 carrier linked via Cys disulfide) [Peptide 6] | activator | weak activator | cardioprotective and yes | MARCKS phosphorylation in WT Cells (PKC [6]): activator |
| CVYVIIDL (not fully specified (residue 1)) [Peptide 13] | activator | increased MARCKS phosphorylation; also recorded: activator | not cardioprotective and no |  |
| CYGRKKRRQRRR (TAT carrier peptide with N-terminal cysteine) [reference compound] | no effect | no effect |  | Cardioprotective ex vivo (intact heart, ex vivo [1]; [7]): no; Cardioprotective ex vivo (intact heart, ex vivo [1]; 1 μM TAT-conjugated peptide 10 minutes prior to 40 minutes global ischemia, 60 minutes reperfusion (peptide 9: 30 minutes ischemia), † and ‡ = trend towards cardioprotective (n = 5, n = 3), listed as TAT): not cardioprotective; MARCKS phosphorylation in WT Cells (PKC [6]): no effect |
| EAVGLQPT (peptide derived from eta PKC) |  |  |  | Activity (known PKC-modulating activity) (ηPKC): inhibitor |
| HETPLGYD (peptide derived from eta PKC) |  |  |  | Activity (known PKC-modulating activity) (ηPKC): activator |
